Experiments:
[1] = 298.15 K, Ring tensiometer
[2] = xn = mol fraction of the nth substance listed; details: 298.15 K, Ring tensiometer

CC(C)O [propan-2-ol]
Details	surface tension liquid-gas [mN/m]
[1]	20.95

O [water]
Details	surface tension liquid-gas [mN/m]
[1]	72.09

CC#N [acetonitrile] + CC(C)O
[2]
Details	surface tension liquid-gas [mN/m]
x1 = 0.2001	21.05
x1 = 0.3621	21.55
x1 = 0.4885	22.15
x1 = 0.5398	22.44
x1 = 0.6001	22.88
x1 = 0.7	23.84
x1 = 0.8001	24.94
x1 = 0.8984	26.23
x1 = 0.9579	27.1
x1 = 0.9701	27.28
x1 = 0.9851	27.55

CC(C)O [propan-2-ol] + O
[2]
Details	surface tension liquid-gas [mN/m]
x2 = 0.099	21.65
x2 = 0.2949	21.97
x2 = 0.5018	22.28
x2 = 0.5993	22.74
x2 = 0.7021	23.28
x2 = 0.8	24.37
x2 = 0.8502	25.04
x2 = 0.8991	26.64
x2 = 0.945	32.36
x2 = 0.9598	35.83
x2 = 0.9697	39.36

CC#N [acetonitrile] + O
[2]
Details	surface tension liquid-gas [mN/m]
x2 = 0.2032	29.46
x2 = 0.4087	30.95
x2 = 0.5149	31.45
x2 = 0.6041	31.68
x2 = 0.7459	32.92
x2 = 0.8145	33.97
x2 = 0.8773	37.97
x2 = 0.8977	39.63
x2 = 0.905	40.54
x2 = 0.9484	49.39
x2 = 0.9702	55.92
x2 = 0.9851	62.36

CC#N [acetonitrile]
Details	surface tension liquid-gas [mN/m]
[1]	27.76
